Source: BigSolDB 2.1

c1ccc2cc3ccccc3cc2c1
solubility (mole fraction) (in DMAc, 293.15 K): 0.0083 | solubility (mole fraction) (in DMAc, 298.85 K): 0.0113 | solubility (mole fraction) (in DMAc, 303.85 K): 0.0142 | solubility (mole fraction) (in DMAc, 308.75 K): 0.0159 | solubility (mole fraction) (in DMAc, 313.95 K): 0.0185 | solubility (mole fraction) (in DMAc, 319.75 K): 0.0215 | solubility (mole fraction) (in DMAc, 324.25 K): 0.025 | solubility (mole fraction) (in DMAc, 328.05 K): 0.0269 | solubility (mole fraction) (in DMAc, 332.2 K): 0.0301 | solubility (mole fraction) (in DMAc, 333.15 K): 0.029 | solubility (mole fraction) (in DMAc, 339.35 K): 0.0338 | solubility (mole fraction) (in DMAc, 344.95 K): 0.0393 | solubility (mole fraction) (in DMAc, 348.45 K): 0.0432 | solubility (mole fraction) (in DMAc, 350.3 K): 0.0502 | solubility (mole fraction) (in DMAc, 354.55 K): 0.0485 | solubility (mole fraction) (in DMAc, 359.25 K): 0.0564 | solubility (mole fraction) (in DMF, 293.35 K): 0.0042 | solubility (mole fraction) (in DMF, 298.45 K): 0.0054 | solubility (mole fraction) (in DMF, 303 K): 0.0057 | solubility (mole fraction) (in DMF, 303.15 K): 0.0068 | solubility (mole fraction) (in DMF, 308 K): 0.0072 | solubility (mole fraction) (in DMF, 308.45 K): 0.0086 | solubility (mole fraction) (in DMF, 312.8 K): 0.0101 | solubility (mole fraction) (in DMF, 313.21 K): 0.0114 | solubility (mole fraction) (in DMF, 313.65 K): 0.0104 | solubility (mole fraction) (in DMF, 317.4 K): 0.011 | solubility (mole fraction) (in DMF, 318.15 K): 0.0127 | solubility (mole fraction) (in DMF, 318.85 K): 0.0131 | solubility (mole fraction) (in DMF, 322.8 K): 0.0139 | solubility (mole fraction) (in DMF, 323.25 K): 0.015 | solubility (mole fraction) (in DMF, 326.28 K): 0.0166 | solubility (mole fraction) (in DMF, 329.15 K): 0.018 | solubility (mole fraction) (in DMF, 333.15 K): 0.0191 | solubility (mole fraction) (in DMF, 334.55 K): 0.0211 | solubility (mole fraction) (in DMF, 334.9 K): 0.0221 | solubility (mole fraction) (in DMF, 339.75 K): 0.0252 | solubility (mole fraction) (in DMF, 345.05 K): 0.0292 | solubility (mole fraction) (in DMF, 348.29 K): 0.032 | solubility (mole fraction) (in DMF, 349.85 K): 0.0336 | solubility (mole fraction) (in DMF, 353.55 K): 0.0384 | solubility (mole fraction) (in DMF, 358.85 K): 0.0448 | solubility (mole fraction) (in DMF, 359.48 K): 0.0452 | solubility (mole fraction) (in NMP, 293.45 K): 0.0152 | solubility (mole fraction) (in NMP, 299.15 K): 0.0186 | solubility (mole fraction) (in NMP, 303.45 K): 0.0217 | solubility (mole fraction) (in NMP, 308.55 K): 0.0255 | solubility (mole fraction) (in NMP, 314.05 K): 0.0325 | solubility (mole fraction) (in NMP, 317.84 K): 0.043 | solubility (mole fraction) (in NMP, 318.15 K): 0.0409 | solubility (mole fraction) (in NMP, 324.75 K): 0.0455 | solubility (mole fraction) (in NMP, 331.21 K): 0.0546 | solubility (mole fraction) (in NMP, 331.25 K): 0.0539 | solubility (mole fraction) (in NMP, 335.25 K): 0.0591 | solubility (mole fraction) (in NMP, 339.75 K): 0.0653 | solubility (mole fraction) (in NMP, 344.55 K): 0.0738 | solubility (mole fraction) (in NMP, 349.85 K): 0.0804 | solubility (mole fraction) (in NMP, 350.45 K): 0.0825 | solubility (mole fraction) (in NMP, 353.55 K): 0.0884
